Source: patent US12583841B2, “Tetrahydropyrrolocyclic compound and application thereof” (Breakthrough Pharmaceuticals Inc., priority 2021, dated 2026)

Columns and labels:
Assay type in all cases: in vivo
[1] = Pharmacokinetic parameters in SD rat plasma
Procedure: (§1) 4 healthy SD rats aged 6-9 weeks were selected and randomly divided into two groups, with 2 rats in each group. One group was given the test compound at 2 mg/kg by intravenous injection, and the other group was given the test compound at 10 mg/kg by intragastric administration. Plasma samples were collected at 0.083, 0.25, 0.5, 1.0, 2.0, 4.0, 6.0, 8.0, and 24 h after administration for the intravenous injection group and intragastric administration group, respectively. Quantitative analysis of all biological samples was carried out by LC-MS/MS method, and the WinNonlin™ Version 6.3 (Pharsight, Mountain View, CA) pharmacokinetic software was used to calculate the relevant pharmacokinetic parameters by the non-compartmental model linear logarithmic trapezoidal method. AUC0-last represents area under the plasma concentration-time curve from time zero to the last detectable concentration time point; p.o. represents oral; i.v. represents intravenous injection; T1/2 represents half-life; CL represents clearance rate; Vd represents apparent volume of distribution; Cmax represents peak concentration; Tmax represents time to peak; F % represents oral bioavailability.
as §1, with “healthy male” for “healthy”

[2] = Drug concentration in cerebrospinal fluid of Beagle dogs; conditions: male, po, Beagle dog, p.o. 5 mg/kg
Procedure: 2 healthy male Beagle dogs were selected, and after intragastric administration of the test compound at 5 mg/kg, cerebrospinal fluid samples were taken at 0.5 h, 2 h and 6 h after the administration, respectively. Quantitative analysis of all biological samples was carried out by LC-MS/MS method, and the WinNonlin™ Version 6.3 (Pharsight, Mountain View, CA) pharmacokinetic software was used to calculate the relevant pharmacokinetic parameters by the non-compartmental model linear logarithmic trapezoidal method. AUC0-last represents area under the plasma concentration-time curve from time zero to the last detectable concentration time point; p.o. represents oral; i.v. represents intravenous injection; T1/2 represents half-life; CL represents clearance rate; Vd represents apparent volume of distribution; Cmax represents peak concentration; Tmax represents time to peak; F % represents oral bioavailability.

[3] = Pharmacokinetic parameters in Beagle dog plasma
Procedure: as §1, with “4 healthy male Beagle dogs were selected” for “4 healthy SD rats aged 6-9 weeks were selected”, “with 2 dogs in each” for “with 2 rats in each”, “compound at 1 mg/kg by” for “compound at 2 mg/kg by”, “compound at 5 mg/kg by” for “compound at 10 mg/kg by”, “collected at 0.033, 0.083, 0.25,” for “collected at 0.083, 0.25,”

SD rats = experiment: Effect on spontaneous activities of SD rats; conditions: SD rat, 30 mg/kg, recorded 60 min from 30 minutes after administration, Mean±SEM; blank vehicle 31.91 ± 3.92
Procedure: Test purpose: to judge the effect of the test compound on the activity of rats by measuring the spontaneous activity distance of rats in a period of time.
Test scheme: 12 male SD rats aged 7 weeks were adapted in the laboratory 1 day before the start of the test. On the day of the experiment, the rats were randomly divided into 2 groups according to their body weight, with 6 rats in each group, and the rats were given blank vehicle and compound 8 (30 mg/kg), respectively. The animals were put into a test box 30 minutes after administration, and the distance data of animal activity were recorded every 5 min with Any-maze software, and the recording was continued for 60 min. By comparing the total distance of animal activity within the recording time, it is judged whether the drug has a significant effect on the spontaneous activity of the animal. The experimental data were represented by the mean±[…] (Mean±SEM). The statistical method adopted one-way analysis of variance plus Dunnett's multiple comparisons. P<0.05 was represented as *, p<0.01 was represented as **, and p<0.001 was represented as ***.

[4] = male, Sprague-Dawley (SD), plasma, iv, i.v. 2 mg/kg
[5] = male, Sprague-Dawley (SD), plasma, po, p.o. 10 mg/kg

AUC(0-t) [1, 4]: 1.76 µM·h
clearance [1, 4]: 44 mL/min/kg
half-life [1, 4]: 12 min
Vd ([1]; male, Sprague-Dawley (SD), plasma, iv, i.v. 2 mg/kg, read-out: Vdss): 0.57 L/kg
AUC(0-t) [1, 5]: 1.45 µM·h
Cmax [1, 5]: 1030 nM
Tmax [1, 5]: 15 min
F ([1]; p.o. 10 mg/kg vs i.v. 2 mg/kg): 17%
concentration at 0.5 h ([2]; 0.5 h): 1160 nM
concentration at 2 h ([2]; 2 h): 773 nM
concentration at 6 h ([2]; 6 h): 110 nM
AUC(0-t) ([3]; male, plasma, iv, i.v. 1 mg/kg): 15.3 µM·h
clearance ([3]; male, plasma, iv, i.v. 1 mg/kg): 2.57 mL/min/kg
half-life ([3]; male, plasma, iv, i.v. 1 mg/kg): 167 min
Vd ([3]; male, plasma, iv, i.v. 1 mg/kg, read-out: Vdss): 0.41 L/kg
AUC(0-t) ([3]; male, plasma, po, p.o. 5 mg/kg): 26.2 µM·h
Cmax ([3]; male, plasma, po, p.o. 5 mg/kg): 6180 nM
Tmax ([3]; male, plasma, po, p.o. 5 mg/kg): 60 min
F ([3]; p.o. 5 mg/kg vs i.v. 1 mg/kg): 34%
Structure (SMILES): COc1ccc(-n2nccn2)c(C(=O)N2C(c3nc4ccc(OC)cc4[nH]3)CC3CC32)c1 (centres unmarked) [Compound 8]
Spontaneous activity distance (SD rats): 14.73 ± 1.38 meters
